Laboratory results published in patent publication US4638070A, “Heterocyclic amino-alcohol derivatives” (Continental Pharma, priority 1980, dated 1987).

Legend:
[1] = Acute toxicity, oral, LD50 (Litchfield and Wilcoxon); conditions: mouse, in vivo, fasted male mice, confidence limits p=95% in brackets
Experimental: (1) The acute toxicity was determined on fasted male mice. The tested substances were orally administered and LD50 values (lethal dose for 50% of animals) were calculated according to the method of Litchfield and Wilcoxon (J. Pharmacol. exp. Ther. 96, 94-113, 1949). These LD50 values are given in mg/kg and also, when possible, with their confidence limits for p=95%.

[2] = tested on: guinea-pig ileum (histamine contractions); test: Antispasmodic activity in vitro, contractions caused by histamine; conditions: added 15 minutes before spasm-producing agent
Experimental: (§1) (4) The antispasmodic activity was measured in vitro, on guinea-pig ileum, the contractions of which were caused by histammne (Hist.), acetylcholine (Achol) or barium chloride (BaCl2). The tested products were added to perfusion bath 15 minutes before the spasm-producing agents.
(§2) The dose is given in micograms (μg) per ml of bath causing complete spasm inhibition.

[3] = tested on: guinea-pig ileum (acetylcholine contractions); test: Antispasmodic activity in vitro, contractions caused by acetylcholine; conditions: added 15 minutes before spasm-producing agent
Experimental: as §1, §2

femoral artery = test: Vasodilator activity, femoral artery (technique of perfused paw); assay type: in vivo; set-up: key: O: no action; +: slight activity; ++: effect equal to half the effect of papaverine; +++: effect equal to that of papaverine; ++++: effect higher than that of papaverine; conditions: intra-arterial, 30 mg/kg, anaesthetized dog, vs papaverine at same dose
Experimental: (3) The vasodilator activity was measured at the level of femoral artery on anaesthetized dog (technique of perfused paw). The tested substances were given intra-arterially at the rate of 30 mg/kg. Results are expressed with respect to papaverine tested at the same dose.
++: effect equal to half the effect of papaverine.
+++: effect equal to that of papaverine.
++++: effect higher than that of papaverine.

Compound | LD50 [1] | ANTISPASMODIC ACTIVITY HIST. (dose causing complete spasm inhibition) [2] | ANTISPASMODIC ACTIVITY ACHOL (dose causing complete spasm inhibition) [3] | VASODILATOR ACTIVITY (femoral artery)
CC(NCCCCc1ccccc1)C(O)c1ccc2c(c1)CCS2 (stereo not shown) [No 7, 1-(2,3-dihydro-5-benzo[b]thienyl)-2-(4-phenylbutylamino)-1-propanol] | 860 mg/kg | – | – | –
CC(NCCOc1ccc(NS(C)(=O)=O)cc1)C(O)c1ccc2c(c1)CCS2 (stereo not shown) [No 103] | – | 3.3 μg per ml | 16.7 μg per ml | –
CC(C)NC(C)C(O)c1ccc2c(c1)CCCCS2 (stereo not shown) [No 38] | 240 mg/kg | 3.3 μg per ml | 8.3 μg per ml | ++
COC(=O)CCCCCCCCCCNC(C)C(O)c1ccc2c(c1)CCCS2 (stereo not shown) [No 73] | > 4000 mg/kg | 3.3 μg per ml | 1.7 μg per ml | +++
CC(CCCc1ccccc1)NC(C)C(O)c1ccc2c(c1)CCC2 (stereo not shown) [No 173] | 2600 mg/kg | 0.8 μg per ml | 0.8 μg per ml | ++
CCCCCCCCNC(C)C(O)c1ccc2c(c1)CCCC2 (stereo not shown) [No 170] | ~2300 mg/kg | 1.7 μg per ml | 0.8 μg per ml | +++
CC(C(O)c1ccc2c(c1)CCC2)N1CCC(c2ccccc2)CC1 (stereo not shown) [No 174] | 2150 mg/kg | 0.8 μg per ml | – | +++
CC(NCCOc1ccc2c(c1)CCC2)C(O)c1ccc2c(c1)CCCS2 (stereo not shown) [No 83] | > 4000 mg/kg | 1.7 μg per ml | 0.8 μg per ml | +++
CC(C(O)c1ccc2c(c1)CCCS2)N1CCC(c2ccccc2)CC1 (stereo not shown) [No 91] | – | 0.8 μg per ml | 1.7 μg per ml | +++
COC(=O)c1ccc(OCCNC(C)C(O)c2ccc3c(c2)CCCS3)cc1 (stereo not shown) [No 114] | > 2000 mg/kg | 0.8 μg per ml | 3.3 μg per ml | +++
COc1ccc(OCCNC(C)C(O)c2ccc3c(c2)CCCS3)cc1 (stereo not shown) [No 53] | > 4000 mg/kg | 3.3 μg per ml | 1.7 μg per ml | +++
CC(NC1CC1)C(O)c1ccc2c(c1)CCCS2 (stereo not shown) [No 51] | – | 8.3 μg per ml | 16.7 μg per ml | ++
CCCCCCCCNC(C)C(OC(=O)CCCCCCC)c1ccc2c(c1)CCCS2 (stereo not shown) [No 136] | > 4000 mg/kg | – | – | –
CC1CSc2ccc(C(O)C(C)NCCCc3ccccc3)cc2C1 (stereo not shown) [No 48] | > 4000 mg/kg | 0.8 μg per ml | 1.7 μg per ml | –
CCCCCCCCNC(CC)C(O)c1ccc2c(c1)CCS2 (stereo not shown) [No 119] | 1800 mg/kg | 0.3 μg per ml | – | ++++
CCCCCCCCNC(C)C(O)c1ccc2c(c1)SCCO2 (stereo not shown) [No 121] | – | 0.8 μg per ml | – | +++
CC(NC1CCCCC1)C(O)c1ccc2c(c1)CCCS2 (stereo not shown) [No 41] | – | 8.3 μg per ml | 8.3 μg per ml | –

Compound | LD50 [1] | ANTISPASMODIC ACTIVITY HIST. (dose causing complete spasm inhibition) [2] | ANTISPASMODIC ACTIVITY ACHOL (dose causing complete spasm inhibition) [3] | VASODILATOR ACTIVITY (femoral artery)
CC(NCCOCc1ccccc1)C(O)c1ccc2c(c1)CCCS2 (stereo not shown) [No 46] | 4000 mg/kg | 8.3 μg per ml | 3.3 μg per ml | +++
CC(CCCc1ccccc1)NC(C)C(O)c1ccc2c(c1)CC(C)O2 (stereo not shown) [No 82] | – | 0.3 μg per ml | 1.7 μg per ml | ++
CCCCSCCCNC(C)C(O)c1ccc2c(c1)CCS2 (stereo not shown) [No 125] | 3400 mg/kg | 1.7 μg per ml | – | ++
CC(CCCc1ccccc1)NC(C)C(O)c1ccc2c(c1)CCS2 (stereo not shown) [No 63] | 1850 mg/kg | 0.8 μg per ml | 0.8 μg per ml | ++
CC(NCCCCc1ccccc1)C(OC(=O)C(C)(C)C)c1ccc2c(c1)CCS2 (stereo not shown) [No 99] | – | 8.3 μg per ml | 1.7 μg per ml | –
CC(NCCOc1ccc2ccccc2c1)C(O)c1ccc2c(c1)CCCS2 (stereo not shown) [No 88] | > 4000 mg/kg | 1.7 μg per ml | 1.7 μg per ml | +++
CCCCCCCCNC(C)C(O)c1ccc2c(c1)CC(C)CS2 (stereo not shown) [No 43] | 3300 mg/kg | 0.8 μg per ml | 1.7 μg per ml | +++
CCCCSCCCNC(C)C(O)c1ccc2c(c1)SCCO2 (stereo not shown) [No 124] | – | 1.7 μg per ml | – | ++
COc1ccc(OCCNC(C)C(O)c2ccc3c(c2)CC(C)S3)cc1 (stereo not shown) [No 66] | – | 1.7 μg per ml | 3.3 μg per ml | ++
CCCCCCCCNC(C)C(O)c1ccc2c(c1)CC(C)S2 (stereo not shown) [No 18] | 3350 mg/kg | – | – | –
CC(NCCCCc1ccccc1)C(O)c1ccc2c(c1)CCCCS2 (stereo not shown) [No 12, 1-(2,3,4,5-tetrahydrobenzo[b]thiepin-7-yl)-2-(4-phenylbutylamino)-1-propanol] | 5200 mg/kg | – | – | –
CC(=O)Nc1ccc(OCCNC(C)C(O)c2ccc3c(c2)CCCS3)cc1 (stereo not shown) [No 87] | – | 8.3 μg per ml | 16.7 μg per ml | +++
CC(NCCCN1CCNC1=O)C(O)c1ccc2c(c1)CCCS2 (stereo not shown) [No 56] | – | > 16.7 μg per ml | > 16.7 μg per ml | ++
CC(NCCCCSc1ccccc1)C(O)c1ccc2c(c1)CCS2 (stereo not shown) [No 31] | > 4000 mg/kg | 0.17 μg per ml | 1.7 μg per ml | –
CC(NC12CC3CC(CC(C3)C1)C2)C(O)c1ccc2c(c1)CCCS2 (stereo not shown) [No 52] | – | 1.7 μg per ml | 1.7 μg per ml | +++
Cc1ccc(OCCNC(C)C(O)c2ccc3c(c2)CC(C)S3)cc1 (stereo not shown) [No 79] | – | 1.7 μg per ml | 0.8 μg per ml | –
CCCCCCCCNC(CC)C(O)c1ccc2c(c1)CCCS2 (stereo not shown) [No 128] | > 4000 mg/kg | – | – | –
